Here are results for three molecules from patent publication US8232289B2, “Spiropiperidine compounds as ORL-1 receptor antagonists” (Eli Lilly and Company, priority 2009, dated 2012).

Like-named read-outs stand apart in the source and are kept apart here. Marks after values point to notes of the source that are not given here.

The target in assay [1] is Delta Opioid (Homo sapiens, UniProt P41143). The experiment in a line: Radioligand binding selectivity, Delta Opioid. The text has this:
(§1) Similarly, Ki for the mu, kappa and delta opioids, serotonin, dopamine, adrenergic, mucarinic, and histamine receptors, as well as binding to the norepinephrine transporter, sodium channel, chloride channel, and calcium channel may be determined using membranes expressing the desired receptor/transporter/channels and appropriate corresponding radioligand competitor molecules.

Assay [2] deals with T1, nociceptin/ORL1 receptors (Rattus norvegicus, UniProt P35370).
T1 construct: from tissue; host or cells: rat hypothalamus (in vivo)
T1 sequence (P35370 whole entry): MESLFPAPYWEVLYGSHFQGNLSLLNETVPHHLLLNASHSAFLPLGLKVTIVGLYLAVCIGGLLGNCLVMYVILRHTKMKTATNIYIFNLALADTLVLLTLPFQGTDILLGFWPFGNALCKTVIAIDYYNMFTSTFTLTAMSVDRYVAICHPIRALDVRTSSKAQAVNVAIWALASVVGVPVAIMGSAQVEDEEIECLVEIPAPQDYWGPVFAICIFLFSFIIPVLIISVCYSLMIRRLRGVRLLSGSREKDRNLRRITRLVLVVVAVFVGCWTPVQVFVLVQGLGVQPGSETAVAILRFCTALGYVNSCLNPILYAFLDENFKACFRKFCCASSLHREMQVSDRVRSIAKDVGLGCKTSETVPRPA
The experiment in a line: In vivo receptor occupancy (LC/MS/MS, RO Tracer) in hypothalamus. The conditions noted are these: for receptor occupancy at 3 mg/kg: rat hypothalamus, 3 mg/kg oral dose, after 6 hr. Details: species or system rats. On the procedure:
Receptor occupancy (RO) using LC/MS/MS has been established as a way to measure central target engagement of putative ORL-1 antagonist in vivo. Nociceptin/ORL1 receptor occupancy (RO) is measured in the hypothalamus, a structure which contains a high density of nociceptin/ORL1 binding sites that are inside the blood brain barrier, using a novel proprietary nociceptin/ORL1 antagonist RO tracer, 2-[(2-fluorophenyl)methyl]-3-(2-fluorospiro[4,5-dihydrothieno[2,3-c]pyran-7,4′-piperidine]-1′-yl)-N,N-dimethyl-propanamide, (RO Tracer). These measurements are made without the need for a radiolabeled tracer as previously published for other receptors with modifications (Chemet E, Martin L J, Li D, Need A B, Barth V N, Rash K S, Phebus L A. Use of LC/MS to assess brain tracer distribution in preclinical, in vivo receptor occupancy studies: dopamine D2, serotonin 2A and NK-1 receptors as examples. Life Sci. 78(4):340-6, 2005.). A positive correlation has been established between central nociceptin/ORL1 RO and efficacy in the modulation of the feeding behavior and forced swim test in rodents. Central nociceptin/ORL1 RO is measured at 6 or 24 hours following oral administration of the test compound to rats. Male Sprague-Dawley rats (Harlan Sprague-Dawley, Indianapolis, Ind.) are treated orally with a test compound, or vehicle (20% Captisol, 25 mM phosphate buffer, pH 2.0). At 6 or 24 hours following administration of test compound/vehicle, all animals are administered an intravenous, 3 ng/kg dose of RO Tracer. It is at the time of RO Tracer administration that RO is considered to be measured. Forty minutes after RO Tracer administration, rats are sacrificed by cervical dislocation and the hypothalamus is removed. The level of RO Tracer is measured in each tissue sample.
The centrally active literature reference standard (−)-cis-1-methyl-7-[[4-(2,6-dichlorophenyl)piperidin-1-yl]methyl]-6,7,8,9-tetrahydro-5H-benzocyclohepten-5-ol (SB612111, see Magdalena and Heisler, supra), a potent nociceptin/ORL1 receptor selective antagonist, is used as a positive control to establish the RO Tracer level associated with 100% nociceptin/ORL1 RO. […]
Hypothalamic samples are homogenized in 4 volumes (w/v) of acetonitrile containing 0.1% formic acid and centrifuged at 14,000 RPM for 16 min. […] Detection of RO Tracer is accomplished by monitoring the precursor to product ion transition with a mass to charge ratio (m/z) of 435 to 239, with levels quantified by comparison to standards prepared in brain tissue homogenates. Zero percent RO is calculated as the level of RO Tracer in the hypothalamus of vehicle-pretreated animals, which represents the sum of nonspecific and specific binding (all receptors available to the tracer). […]

For assay [3], the system named is male NIH-Swiss mice. The experiment in a line: Forced-swim test in mice (mFST). Type of assay: in vivo. The conditions noted are these: for ED60 in mFST: immobilization time; for maximum effect, reduction in immobilization time: mouse, in vivo. The text has this: mFST is an established in vivo assay for antidepressant activity (Li et al. J Pharmacol Exp Ther. 319(1):254-9, 2006.). […] The mFST was used to evaluate potential antidepressant-like activity of novel nociceptin/ORL1 antagonists according to previously published methods (Li et al. J Pharmacol Exp Ther. 319(1):254-9, 2006.). Briefly, male NIH-Swiss mice (Harlan Sprague-Dawley, Indianapolis, Ind.) weighing between 25-30 g are used. Group housed animals are removed from the vivarium to the testing area in their own cages and allowed to adapt to the new environment for at least 1 hour before testing. Alternatively, male 129S6 wild type and nociceptin/ORL1 receptor knockout mice were used to confirm dependence of the response to compound was nociceptin/ORL1 receptor dependent. All compounds are prepared in 20% Captisol, 25 mM phosphate buffer, pH 2.0 on the day of use. Mice are placed in a cylinder (diameter: 10 cm; height: 25 cm) filled with 6 cm of water (22-25° C.) for 6 min. The duration of immobility during the last 4 min. of the 6 min. period of the test was scored. A mouse is recorded as immobile when floating motionless or making only those movements necessary to keep its head above water.

The target of assay [4] is 5-HT1B (Homo sapiens, UniProt P28222). The experiment in a line: Radioligand binding selectivity, 5-HT1B.
Sequence of 5-HT1B (P28222 whole entry, species assumed): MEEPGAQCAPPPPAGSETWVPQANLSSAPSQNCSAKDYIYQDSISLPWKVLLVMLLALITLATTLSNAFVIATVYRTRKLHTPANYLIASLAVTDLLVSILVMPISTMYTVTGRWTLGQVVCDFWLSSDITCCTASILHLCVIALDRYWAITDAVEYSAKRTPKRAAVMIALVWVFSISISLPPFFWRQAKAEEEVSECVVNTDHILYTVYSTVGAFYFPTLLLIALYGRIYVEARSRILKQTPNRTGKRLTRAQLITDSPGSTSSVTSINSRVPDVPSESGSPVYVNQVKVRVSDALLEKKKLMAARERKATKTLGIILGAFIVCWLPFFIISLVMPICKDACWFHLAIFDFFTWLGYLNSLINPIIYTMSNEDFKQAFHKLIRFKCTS
Source text: as §1

Assay [5] concerns the target 5-HT1F (Homo sapiens, UniProt P30939). Kind of assay: Radioligand binding selectivity, 5-HT1F.
Source text: as §1

Assay [6] deals with 5-HT2B (Homo sapiens, UniProt P41595). Kind of assay: Radioligand binding selectivity, 5-HT2B.
Sequence of 5-HT2B (P41595 whole entry, species assumed): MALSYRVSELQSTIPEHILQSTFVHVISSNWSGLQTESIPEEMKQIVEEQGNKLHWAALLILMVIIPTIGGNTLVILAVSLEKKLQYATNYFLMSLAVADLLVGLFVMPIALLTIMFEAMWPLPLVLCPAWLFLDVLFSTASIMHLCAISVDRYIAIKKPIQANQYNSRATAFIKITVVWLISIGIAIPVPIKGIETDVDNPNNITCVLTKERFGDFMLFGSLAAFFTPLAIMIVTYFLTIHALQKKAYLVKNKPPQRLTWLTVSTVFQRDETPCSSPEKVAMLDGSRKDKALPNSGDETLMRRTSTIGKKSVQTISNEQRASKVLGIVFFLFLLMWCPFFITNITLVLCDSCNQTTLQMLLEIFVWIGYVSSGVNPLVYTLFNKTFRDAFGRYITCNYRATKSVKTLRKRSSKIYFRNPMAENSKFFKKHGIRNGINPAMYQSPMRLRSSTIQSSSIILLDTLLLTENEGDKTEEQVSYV
Source text: as §1

The target of assay [7] is 5-HT4 (Homo sapiens, UniProt Q13639). The experiment in a line: Radioligand binding selectivity, 5-HT4.
Sequence of 5-HT4 (Q13639 whole entry, species assumed): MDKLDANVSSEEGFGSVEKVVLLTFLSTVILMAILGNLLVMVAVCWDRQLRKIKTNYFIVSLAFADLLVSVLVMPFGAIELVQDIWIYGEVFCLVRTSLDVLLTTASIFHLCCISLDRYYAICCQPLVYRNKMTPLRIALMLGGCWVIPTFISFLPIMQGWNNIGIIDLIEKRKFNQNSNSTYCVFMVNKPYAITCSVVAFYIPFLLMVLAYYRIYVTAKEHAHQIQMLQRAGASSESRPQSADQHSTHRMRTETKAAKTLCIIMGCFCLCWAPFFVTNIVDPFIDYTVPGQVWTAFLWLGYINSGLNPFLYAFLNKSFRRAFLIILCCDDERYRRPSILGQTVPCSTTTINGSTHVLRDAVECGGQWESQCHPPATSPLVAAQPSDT
Source text: as §1

The target in assay [8] is 5-HT7 (Homo sapiens, UniProt P34969). Kind of assay: Radioligand binding selectivity, 5-HT7.
Sequence of 5-HT7 (P34969 whole entry, species assumed): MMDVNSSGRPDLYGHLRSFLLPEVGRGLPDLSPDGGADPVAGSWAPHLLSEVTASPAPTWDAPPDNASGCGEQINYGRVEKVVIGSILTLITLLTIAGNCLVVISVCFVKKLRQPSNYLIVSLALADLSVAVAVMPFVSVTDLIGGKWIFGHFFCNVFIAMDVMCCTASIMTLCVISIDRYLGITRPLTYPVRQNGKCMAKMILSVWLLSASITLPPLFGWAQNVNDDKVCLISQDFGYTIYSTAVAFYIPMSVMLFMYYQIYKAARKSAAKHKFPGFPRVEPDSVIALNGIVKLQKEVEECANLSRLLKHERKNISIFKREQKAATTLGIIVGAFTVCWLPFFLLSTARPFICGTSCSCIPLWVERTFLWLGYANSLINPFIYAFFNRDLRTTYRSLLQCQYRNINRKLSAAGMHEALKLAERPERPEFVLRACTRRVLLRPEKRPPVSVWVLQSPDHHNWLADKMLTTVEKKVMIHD
Source text: as §1

The target in assay [9] is Adrenergic Alpha2. The experiment in a line: Radioligand binding selectivity, Adrenergic Alpha2.
Source text: as §1

In assay [10] the target is Muscarinic M3 (Homo sapiens, UniProt P20309). The experiment in a line: Radioligand binding selectivity, Muscarinic M3.
Sequence of Muscarinic M3 (P20309 whole entry): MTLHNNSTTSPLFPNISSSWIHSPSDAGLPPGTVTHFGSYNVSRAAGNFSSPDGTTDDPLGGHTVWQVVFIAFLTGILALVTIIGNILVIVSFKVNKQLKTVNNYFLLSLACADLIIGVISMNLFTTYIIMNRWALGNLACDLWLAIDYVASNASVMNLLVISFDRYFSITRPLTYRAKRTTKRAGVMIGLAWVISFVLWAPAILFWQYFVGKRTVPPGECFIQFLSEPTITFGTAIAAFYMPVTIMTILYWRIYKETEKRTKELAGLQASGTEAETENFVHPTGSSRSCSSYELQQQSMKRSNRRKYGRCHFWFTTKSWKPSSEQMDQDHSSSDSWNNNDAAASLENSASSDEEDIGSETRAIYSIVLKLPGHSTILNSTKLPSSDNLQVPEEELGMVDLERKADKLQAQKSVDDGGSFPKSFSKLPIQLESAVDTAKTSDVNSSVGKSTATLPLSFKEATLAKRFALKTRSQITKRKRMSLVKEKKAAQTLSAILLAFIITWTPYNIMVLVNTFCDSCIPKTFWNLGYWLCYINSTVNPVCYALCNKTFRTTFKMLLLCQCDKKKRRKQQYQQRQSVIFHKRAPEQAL
Source text: as §1

For assay [11], the target named is Ca+2 channel (diltiazem site). The experiment in a line: Radioligand binding selectivity, Ca+2 channel (diltiazem site).
Source text: as §1

Sequence of Delta Opioid (P41143 whole entry): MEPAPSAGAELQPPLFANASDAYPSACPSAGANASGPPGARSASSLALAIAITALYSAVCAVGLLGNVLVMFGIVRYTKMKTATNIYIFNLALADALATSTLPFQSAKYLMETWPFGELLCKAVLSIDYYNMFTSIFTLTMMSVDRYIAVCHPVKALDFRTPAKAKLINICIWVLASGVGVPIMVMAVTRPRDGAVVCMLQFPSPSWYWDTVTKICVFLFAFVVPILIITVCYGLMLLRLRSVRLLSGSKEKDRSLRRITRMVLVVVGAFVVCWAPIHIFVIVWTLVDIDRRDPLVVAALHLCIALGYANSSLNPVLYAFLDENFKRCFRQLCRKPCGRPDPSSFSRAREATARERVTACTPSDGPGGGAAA
Sequence of 5-HT1F (P30939 whole entry, species assumed): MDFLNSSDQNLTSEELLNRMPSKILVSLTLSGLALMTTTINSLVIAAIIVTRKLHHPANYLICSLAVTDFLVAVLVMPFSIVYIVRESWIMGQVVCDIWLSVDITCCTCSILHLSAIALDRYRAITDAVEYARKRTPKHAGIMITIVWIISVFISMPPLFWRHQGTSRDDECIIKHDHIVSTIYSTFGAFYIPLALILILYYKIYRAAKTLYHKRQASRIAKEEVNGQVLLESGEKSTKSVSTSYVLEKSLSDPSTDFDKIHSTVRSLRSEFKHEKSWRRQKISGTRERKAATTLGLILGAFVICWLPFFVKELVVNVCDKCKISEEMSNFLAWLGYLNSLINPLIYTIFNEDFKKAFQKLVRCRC

`Cc1nn(-c2ncccc2Cn2cccn2)cc1CN1CCC2(CC1)OCC(F)(F)c1cc(Cl)sc12.O=C(O)C(O)C(O)C(=O)O` [Example 23, 2-Chloro-4,4-difluoro-1′-[[3-methyl-1-[3-(pyrazol-1-ylmethyl)-2-pyridyl]pyrazol-4-yl]methyl]spiro[5H-thieno[2,3-c]pyran-7,4′-piperidine] (L)-Tartrate] came in with a Ki in assay [1] greater than 0.479 µM. In assay [2], this molecule showed a receptor occupancy at 3 mg/kg of 80%. In assay [3], the “ED60 in mFST” value was 9.5 mg/kg and the “maximum effect, reduction in immobilization time” value (from here on “maximum effect, reduction”) was 58%.

Consider `O=C(O)C(O)C(O)C(=O)O.OCc1nn(-c2ncccc2F)cc1CN1CCC2(CC1)OCC(F)(F)c1cc(Cl)sc12` [Example 53, [4-[(2-Chloro-4,4-difluoro-spiro[5H-thieno[2,3-c]pyran-7,4′-piperidine]-1′-yl)methyl]-1-(3-fluoro-2-pyridyl)pyrazol-3-yl]methanol (L)-Tartrate], for which the Ki in [1] is greater than 0.479 µM; in assay [4] it was greater than 3.58 µM; in assay [5], greater than 8.52 µM; in [6] it was 0.22 µM; in assay [7], greater than 4.12 µM; in [8], greater than 3.98 µM. Besides, the Ki was greater than 5 µM in assay [9], greater than 5 µM in assay [10] and greater than 0.5 µM in assay [11]. Further, the receptor occupancy at 3 mg/kg in [2] is 83%. The “ED60 in mFST” value in [3] was 12.9 mg/kg. In [3], the “maximum effect, reduction” value came to 54%.

As to `Cc1nn(-c2ncccc2CO)cc1CN1CCC2(CC1)OCC(F)(F)c1cc(Cl)sc12` [Example 62, [2-[4-[(2-Chloro-4,4-difluoro-spiro[5H-thieno[2,3-c]pyran-7,4′-piperidine]-1′-yl)methyl]-3-methyl-pyrazol-1-yl]-3-pyridyl]methanol], the Ki in assay [1] (read-out: Ki Delta Opioid) is greater than 0.479 µM; in assay [4] (read-out: Ki 5-HT1B), greater than 3.58 µM; in assay [5] (read-out: Ki 5-HT1F), greater than 8.52 µM; in [6] (read-out: Ki 5-HT2B), 0.693 µM; in assay [7] (read-out: Ki 5-HT4), greater than 4.12 µM; in assay [8] (read-out: Ki 5-HT7), greater than 3.98 µM. Besides, the Ki was greater than 5 µM in assay [9], greater than 5 µM in assay [10] (read-out: Ki Muscarinic M3) and greater than 0.5 µM in assay [11]. Also, the “in vivo plasma concentration necessary to produce 80 percent RO (EC80 RO)” value in [2] (nociceptin/ORL1 receptors in the CNS) is on record as “approximately 41 nM”. The molecule also displayed a receptor occupancy at 3 mg/kg in assay [2] of 104%. For the same molecule, the “Immobilization Time” value was 97* sec in assay [3] (3 mg/Kg Ex. 62 + 10 mg/Kg fluoxetine); 163 s in assay [3] (3 mg/Kg, alone); 85* sec in [3] (10 mg/Kg Ex. 62 + 10 mg/Kg fluoxetine); 129 s in [3] (10 mg/Kg, alone). Moreover, the “ED60 in mFST” value in [3] was determined as 24.9 mg/kg. Also, in assay [3] (in combination with 10 mg/kg fluoxetine), the “effect on immobilization time in combination with fluoxetine” value is listed as “significantly further reduce immobilization time over either fluoxetine or the compound of Example 62 alone”. Further, the “maximum effect, reduction” value in assay [3] is 45%.
